Data reported in patent publication US20180110754A1, “CENICRIVIROC FOR THE TREATMENT OF FIBROSIS” (Tobira Therapeutics, Inc., priority 2015, published 2018).
Where “and” joins values, the source holds several entries; their conditions need not be identical. Equal values may be shown once.

What was measured:
CCR3 = CCR3 (Homo sapiens, UniProt P51677); test: Inhibition of ligand binding to CCR3
HIV-1 = test: Study 201 Phase 2a 10-day monotherapy: HIV-1 RNA and resistance; type: in vivo, human; settings: for Median nadir change from baseline in HIV-1 RNA: 10 days
Protocol: Participants were required to be antiretroviral treatment-experienced, CCR5 antagonist-naive, with HIV-1 RNA levels of at least 5000 copies/mL and CD4+ cell counts of at least 250 cells/mm^3 was performed.
In Study 201, drug resistance testing was performed at Baseline, Day 7, and Day 40 (or at the “Early Termination” visit, if applicable).

[1] = tested on: STAM mouse model of Non-alcoholic Steatohepatitis; test: STAM mouse model of NASH, week 9 (anti-NASH/fibrosis effects); type: in vivo
Protocol: NASH was induced in male mice by a single injection of 200 μg streptozotocin 2 days after birth (causing impaired glucose control), followed by a high fat diet from 4 weeks of age. […] Animals were sacrificed at 9 weeks of age, and biochemical, gene expression, and histologic evaluations of the liver were conducted.

[2] = CVC-high 100 mg/kg/day, week 9, listed as Cenicriviroc

Sequence of CCR3 (P51677 whole entry): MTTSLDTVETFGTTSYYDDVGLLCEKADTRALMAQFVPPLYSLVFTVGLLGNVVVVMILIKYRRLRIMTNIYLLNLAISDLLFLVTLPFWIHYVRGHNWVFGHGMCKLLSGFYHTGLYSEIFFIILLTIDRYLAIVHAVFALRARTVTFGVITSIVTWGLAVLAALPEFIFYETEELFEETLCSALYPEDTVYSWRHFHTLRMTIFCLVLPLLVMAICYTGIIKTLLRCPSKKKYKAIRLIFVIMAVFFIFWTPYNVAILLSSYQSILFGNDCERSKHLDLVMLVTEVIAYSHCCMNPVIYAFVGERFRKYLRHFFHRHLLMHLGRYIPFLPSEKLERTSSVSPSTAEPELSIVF

CCCCOCCOc1ccc(-c2ccc3c(c2)/C=C(/C(=O)Nc2ccc([S@@+]([O-])Cc4cncn4CCC)cc2)CCCN3CC(C)C)cc1 [CVC, (S)-8-[4-(2-Butoxyethoxy)phenyl]-1-isobutyl-N-(4-{[(1-propyl-1H-imidazol-5-yl)methyl]sulfinyl}phenyl)-1,2,3,4-tetrahydro-1-benzazocine-5-carboxamide]
Inhibition of ligand binding to CCR3 (CCR3): only weakly inhibited | Median nadir change from baseline in HIV-1 RNA (HIV-1; 25 mg once daily): −0.7 log^10 copies/mL | Median nadir change from baseline in HIV-1 RNA (HIV-1; 50 mg once daily): −1.6 log^10 copies/mL | Median nadir change from baseline in HIV-1 RNA (HIV-1; 75 mg once daily): −1.8 log^10 copies/mL | Median nadir change from baseline in HIV-1 RNA (HIV-1; 150 mg once daily): −1.7 log^10 copies/mL | Drug resistance testing (Baseline, Day 7, Day 40) (HIV-1; all subjects with evaluable samples): fully susceptible | Effect on body or liver weight, whole blood glucose, or liver triglycerides ([1]; 20 and 100 mg/kg/day, week 9): no effect | Decrease of collagen type 1 mRNA in whole liver lysates (real-time RT-PCR) ([1]; CVC 20 and 100 mg/kg/day, week 9): 27-37% | Body weight ([1]; CVC-high 100 mg/kg/day, week 9): 18.7 ± 0.9 g | F4/80-positive area (inflammation area) ([1]; CVC-high 100 mg/kg/day, week 9): 4.96±0.60% | F4/80 and CD16/32-positive cells ([1]; CVC-high 100 mg/kg/day, week 9): 41.5±8.2% | F4/80 and CD206-positive cells ([1]; CVC-high 100 mg/kg/day, week 9): 33.1±3.0% | Liver hydroxyproline ([1]; CVC-high 100 mg/kg/day, week 9): 0.62±0.09 μg/mg total protein | Liver triglyceride ([1]; CVC-high 100 mg/kg/day, week 9): 51.7±14.1 mg/g liver | Liver weight ([1]; CVC-high 100 mg/kg/day, week 9): 1307 ± 119 mg | NAFLD Activity Score (NAS) ([1]; CVC-high 100 mg/kg/day, week 9): 3.7±0.8 | Oil red-positive area (fat deposition area) ([1]; CVC-high 100 mg/kg/day, week 9): 7.23±3.59% | Plasma ALT ([1]; CVC-high 100 mg/kg/day, week 9): 51±13 U/L and 52±13 U/L | Plasma MCP-1 ([1]; CVC-high 100 mg/kg/day, week 9): 91 ± 14 pg/mL | Plasma MIP-1β ([1]; CVC-high 100 mg/kg/day, week 9): 20 ± 4 pg/mL | TUNEL-positive cells ([1]; CVC-high 100 mg/kg/day, week 9): 39.0±5.3% | Whole blood glucose ([1]; CVC-high 100 mg/kg/day, week 9): 585 ± 91 mg/dL | Body weight [1, 2]: 18.7 ± 0.9 g | F4/80-positive area (inflammation area) [1, 2]: 4.96 ± 0.60% | F4/80 and CD16/32-positive cells [1, 2]: 41.5 ± 8.2% | F4/80 and CD206-positive cells [1, 2]: 33.1 ± 3.0% | Liver hydroxyproline [1, 2]: 0.62 ± 0.09 μg/mg total protein | Liver triglyceride [1, 2]: 51.7 ± 14.1 mg/g liver | Liver weight [1, 2]: 1307 ± 119 mg | NAFLD Activity Score (NAS) [1, 2]: 3.7 ± 0.8 | Oil red-positive area (fat deposition area) [1, 2]: 7.23 ± 3.59% | Plasma ALT [1, 2]: 52 ± 13 U/L | Plasma MCP-1 [1, 2]: 91 ± 14 pg/mL | Plasma MIP-1β [1, 2]: 20 ± 4 pg/mL | TUNEL-positive cells [1, 2]: 39.0 ± 5.3% | Whole blood glucose [1, 2]: 585 ± 91 mg/dL | Sirius red-positive area (fibrosis area) ([1]; CVC-high 100 mg/kg/day, week 9, perivascular space included, listed as Cenicriviroc): 0.64 ± 0.19% | Modified Sirius red-positive area ([1]; CVC-high 100 mg/kg/day, week 9, perivascular space subtracted, listed as Cenicriviroc): 0.20 ± 0.06% | Modified positive area (%), per mouse ([1]; CVC-high, Sirius red, mice 301-306 (raw data), listed as Cenicriviroc): 0.12% and 0.26% and 0.17% and 0.27% and 0.18% and 0.20% | Modified positive area (%), individual photo ([1]; CVC-high, Sirius red, mice 301-306, photos 1-5 (raw data), listed as Cenicriviroc): 0.17% (2×) and 0.28% (2×) and 0.22% (2×) and 0.08% (3×) and 0.05% and 0.09% (2×) and 0.32% and 0.07% (3×) and 0.16% and 0.20% (2×) and 0.68% and 0.23% (2×) and 0.27% and 0.12% and 0.11% and 0.67% and 0.26% and 0.06% and 0.10% and 0.41% | Number of animals with Hepatocyte ballooning score 0 ([1]; CVC-high, week 9, n=6): 1 | Number of animals with Hepatocyte ballooning score 1 ([1]; CVC-high, week 9, n=6): 2 | Number of animals with Hepatocyte ballooning score 2 ([1]; CVC-high, week 9, n=6): 3 | Number of animals with Lobular inflammation score 1 ([1]; CVC-high, week 9, n=6): 3 | Number of animals with Lobular inflammation score 2 ([1]; CVC-high, week 9, n=6): 3 | Number of animals with Steatosis score 1 ([1]; CVC-high, week 9, n=6): 5 | Body weight ([1]; CVC-low 20 mg/kg/day, week 9): 19.5 ± 2.0 g | F4/80-positive area (inflammation area) ([1]; CVC-low 20 mg/kg/day, week 9): 4.77±1.02% | F4/80 and CD16/32-positive cells ([1]; CVC-low 20 mg/kg/day, week 9): 38.7±7.6% | F4/80 and CD206-positive cells ([1]; CVC-low 20 mg/kg/day, week 9): 34.7±6.3% | Liver hydroxyproline ([1]; CVC-low 20 mg/kg/day, week 9): 0.63±0.05 μg/mg total protein
